From article PMC8037569, “Neuroprotective Effect of Aurantio-Obtusin, a Putative Vasopressin V1A Receptor Antagonist, on Transient Forebrain Ischemia Mice Model” (International Journal of Molecular Sciences, 2021)
“Also recorded” adds a separate entry of the source.

Experiments:
[1] = target: T1, hD3 receptor (Homo sapiens, UniProt P35462); assay: GPCR functional assay: cAMP modulation by HTRF in transfected CHO cells; assay type: cell-based; details: 100 µM test compound
T1 construct: host or cells: CHO

[2] = target: T2, hNK1R (Homo sapiens, UniProt P25103); assay: GPCR functional assay: intracellular Ca2+ mobilization in U373MG cells; assay type: cell-based
T2 construct: Human endogenous (U373MG cells); host or cells: U373MG

[3] = target: T3, h5-HT1AR (Homo sapiens, UniProt P08908); assay: GPCR functional assay: intracellular Ca2+ mobilization in Ba/F3 cells; assay type: cell-based
T3 construct: host or cells: Ba/F3 (murine pro-B)
T3 sequence (P08908 1-422): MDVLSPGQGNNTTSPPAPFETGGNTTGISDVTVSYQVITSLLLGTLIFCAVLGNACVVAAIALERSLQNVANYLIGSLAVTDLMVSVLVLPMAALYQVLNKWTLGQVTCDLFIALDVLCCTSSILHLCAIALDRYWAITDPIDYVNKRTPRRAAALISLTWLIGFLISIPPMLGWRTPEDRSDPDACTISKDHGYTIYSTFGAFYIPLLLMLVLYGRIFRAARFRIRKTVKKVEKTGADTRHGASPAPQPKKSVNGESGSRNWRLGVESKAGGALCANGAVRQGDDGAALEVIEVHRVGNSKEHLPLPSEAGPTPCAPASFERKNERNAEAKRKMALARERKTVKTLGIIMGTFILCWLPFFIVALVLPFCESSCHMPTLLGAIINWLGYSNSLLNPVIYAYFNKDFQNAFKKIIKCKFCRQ

[4] = target: T4, hV1AR (Homo sapiens, UniProt P37288); assay: GPCR functional assay: intracellular Ca2+ mobilization in transfected CHO cells; assay type: cell-based
T4 construct: host or cells: CHO

[5] = system: C57BL/6 mice; assay: Passive avoidance test after transient forebrain ischemia (BCCAO); assay type: in vivo, mouse; details: 10 mg/kg, p.o., once daily, 1 h to 7 days after BCCAO; for Latency time in test trial of passive avoidance test: vs BCCAO group, p < 0.05
Protocol: (§1) Male C57BL/6 mice (22–26 g, 7 weeks) were purchased from the Orient Co. Ltd., a branch of Charles River Laboratories (Seoul, Korea), and kept in the University Animal Care Unit for 1 week prior to the experiments. The animals were housed five per cage, allowed access to water and food ad libitum; the environment was maintained at a constant temperature (23 ± 1 °C) and humidity (60 ± 10%) under a 12-h light/dark cycle (the lights were on from 07:30 to 19:30 h). Forty mice were divided equally into four groups (sham + vehicle, n = 10; sham + drug, n = 10; bilateral common carotid artery occluded ischemia + vehicle, n = 10; bilateral common carotid artery occluded ischemia + drug, n = 10) for experiment. The treatment and maintenance of the animals were carried out in accordance with the Animal Care and Use Guidelines of Dong-A University, Korea. All in vivo experiments were performed according to the protocols approved by the Institutional Animal Care and Use Committee of Dong-A University (approved protocol numbers: DIACUC-approved-17-20) and were in accordance with the National Institutes of Health guidelines.
C57BL/6 mice were anesthetized with 2.0% isoflurane and 70% nitrous oxide in oxygen and subjected to transient forebrain ischemia. The transient forebrain ischemia was induced by bilateral common carotid artery occlusion (BCCAO) with aneurysm clips for 20 min, and the circulation was restored by removing the clips. Mice that received the same surgical operation without carotid artery clipping served as sham-operated controls. During the surgical procedure, the rectal temperature was maintained at 37 ± 0.5 °C with a heating pad (Biomed S.L., Barcelona, Spain). The regional cerebral blood flow (rCBF) was monitored using laser Doppler flowmetry (Perimed, PF5010, JarFalla, Sweden). […]
Passive avoidance test was conducted 1 h after the last drug administration. […] For the retention trial, the mouse was again placed in the light compartment and the time required to enter the dark compartment was recorded.

[6] = system: C57BL/6 mice; assay: Nissl staining, severity of neuronal damage after transient forebrain ischemia (BCCAO); assay type: in vivo, mouse; details: 10 mg/kg, p.o., vs BCCAO group, score 0 to 3, n = 6/group
Protocol: as §1
C57BL/6 mice were anesthetized with 2.0% isoflurane and 70% nitrous oxide in oxygen and subjected to transient forebrain ischemia. The transient forebrain ischemia was induced by bilateral common carotid artery occlusion (BCCAO) with aneurysm clips for 20 min, and the circulation was restored by removing the clips. Mice that received the same surgical operation without carotid artery clipping served as sham-operated controls. During the surgical procedure, the rectal temperature was maintained at 37 ± 0.5 °C with a heating pad (Biomed S.L., Barcelona, Spain). The regional cerebral blood flow (rCBF) was monitored using laser Doppler flowmetry (Perimed, PF5010, JarFalla, Sweden). […] After reperfusion, the animals were placed in a warm incubator (32–33 °C) and returned to their home cages. Aurantio-obtusin, which was dissolved in 10% Tween 80 solution, was administered from 1 h to 7 days after BCCAO (10 mg/kg, p.o., once daily).
One day after the test trial of passive avoidance test, mice were anesthetized with Zoletil 50® (10 mg/kg, i.m.) and then perfused transcardially with a 100 mM phosphate buffer (pH 7.4) followed by ice-cold 4% paraformaldehyde. The brains of the mice were removed and post-fixed in a phosphate buffer (50 mM, pH 7.4) containing 4% paraformaldehyde overnight, then immersed in a 30% sucrose solution (in 50 mM phosphate-buffered saline, PBS), and stored at 4 °C until sectioned. The frozen brains were coronally sectioned on a cryostat at 30 μm and then stored in a storage solution (30% ethylene glycol, 30% glycerin, and 20 mM phosphate buffer) at 4 °C. Hippocampal sections were collected based on the mouse brain atlas.
After the sections were mounted onto gelatin-coated slides, they were stained with 0.5% cresyl violet, dehydrated through graded alcohols (70, 80, 90, and 100% × 2), placed in xylene, and covered with a coverslip after the addition of Histomount media. The number of cells in selected regions (medial CA1, mCA1; dorsal CA1, dCA1; CA2; cortex) were determined using a computerized image analysis system (Leica Microsystems AG, Wetzlar, Germany). The cells were counted in six sections by every eight sections interval (total 48 sections) per animal by a person blind to the treatment group, and the average cell count per section was computed. The degree of damage by the Nissl staining after ischemia was semiquantitatively scored from 0 to 3 (0, normal; 1, <30% of the neurons were irreversibly damaged; 2, 30–60% of the neurons were irreversibly damaged; 3, 60–100% of the neurons were irreversibly damaged).

[7] = system: angiotensin-converting enzyme (ACE); parameters: method as in PMID 18803227; details: cited from earlier work
[8] = system: rat; parameters: method as in PMID 31547563; details: cited from earlier work

T4 sequence (P37288 whole entry): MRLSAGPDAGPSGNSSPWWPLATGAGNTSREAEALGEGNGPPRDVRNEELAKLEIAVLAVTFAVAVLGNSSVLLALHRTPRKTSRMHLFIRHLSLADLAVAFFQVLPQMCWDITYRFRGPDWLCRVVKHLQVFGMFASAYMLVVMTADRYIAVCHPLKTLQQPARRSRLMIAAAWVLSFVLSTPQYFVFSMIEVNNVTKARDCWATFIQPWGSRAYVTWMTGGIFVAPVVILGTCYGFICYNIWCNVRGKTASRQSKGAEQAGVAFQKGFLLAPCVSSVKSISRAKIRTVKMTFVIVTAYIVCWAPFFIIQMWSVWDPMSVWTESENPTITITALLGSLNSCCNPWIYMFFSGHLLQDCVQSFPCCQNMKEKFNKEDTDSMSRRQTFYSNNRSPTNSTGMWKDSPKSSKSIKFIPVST
T2 sequence (P25103 whole entry): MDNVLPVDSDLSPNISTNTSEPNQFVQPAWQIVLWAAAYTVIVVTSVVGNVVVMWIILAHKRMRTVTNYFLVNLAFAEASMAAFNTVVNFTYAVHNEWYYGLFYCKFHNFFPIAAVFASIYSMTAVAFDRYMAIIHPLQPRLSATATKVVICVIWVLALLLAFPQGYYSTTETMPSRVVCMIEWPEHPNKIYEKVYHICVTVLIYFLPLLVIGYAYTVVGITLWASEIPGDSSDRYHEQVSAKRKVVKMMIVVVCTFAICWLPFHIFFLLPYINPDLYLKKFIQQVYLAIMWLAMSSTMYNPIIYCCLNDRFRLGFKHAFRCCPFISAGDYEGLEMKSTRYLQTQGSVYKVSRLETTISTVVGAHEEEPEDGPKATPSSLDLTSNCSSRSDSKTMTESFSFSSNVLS
T1 sequence (P35462 whole entry): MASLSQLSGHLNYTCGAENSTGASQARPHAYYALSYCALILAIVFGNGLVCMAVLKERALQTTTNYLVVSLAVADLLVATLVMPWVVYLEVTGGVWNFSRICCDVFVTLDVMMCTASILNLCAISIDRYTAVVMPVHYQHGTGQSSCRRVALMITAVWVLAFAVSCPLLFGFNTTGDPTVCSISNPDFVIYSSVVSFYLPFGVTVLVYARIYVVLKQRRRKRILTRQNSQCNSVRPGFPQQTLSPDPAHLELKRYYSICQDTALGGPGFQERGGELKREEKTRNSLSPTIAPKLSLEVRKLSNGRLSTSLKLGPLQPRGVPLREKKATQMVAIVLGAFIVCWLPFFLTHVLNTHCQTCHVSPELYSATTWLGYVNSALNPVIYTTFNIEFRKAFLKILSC

COc1c(O)cc2c(c1O)C(=O)c1c(cc(C)c(O)c1OC)C2=O [Aurantio-obtusin, 1,3,7-trihydroxy-2,8-dimethoxy-6-methylanthracene-9,10-dione]
% Stimulation (agonist effect) of control agonist response, D3 (h) ([1]; control response to 300 nM dopamine): 33.00 ± 1.84%
inhibition at 100 µM ([1]; CHO, agonist response of 10 nM dopamine, read-out: % Inhibition (antagonist effect) of control agonist response, D3 (h) (converted)): -2.3%
% Stimulation (agonist effect) of control agonist response, NK1 (h) ([2]; 100 µM test compound, control response to 30 nM [Sar9, Met(O2)11]-SP): −6.40 ± 0.00%
inhibition at 100 µM ([2]; U373 MG, read-out: % Inhibition (antagonist effect) of control agonist response, NK1 (h) (converted)): 47.6%
% Stimulation (agonist effect) of control agonist response, 5-HT1A (h) ([3]; 100 µM test compound, control response to serotonin (2.5 μM)): −6.10 ± 0.00%
inhibition at 100 µM ([3]; BaF3, read-out: % Inhibition (antagonist effect) of control agonist response, 5-HT1A (h) (converted)): 10.1%
% Stimulation (agonist effect) of control agonist response, V1A (h) ([4]; 100 µM test compound, control response to 1 μM AVP): −33.20 ± 2.69%
inhibition at 100 µM ([4]; CHO, 100 µM test compound, control response to 10 nM AVP, read-out: % Inhibition (antagonist effect) of control agonist response, V1A (h) (converted)): 71.8%
IC50 ([4]; concentrations up to 100 µM, control response to 10 nM AVP, read-out: V1AR antagonist effect IC50): 67.7 ± 2.41 µM
Latency time in training trial of passive avoidance test ([5]; n = 8/group): no significant differences
Latency time in test trial of passive avoidance test [5]: significantly attenuated the reduction of latency time
Latency time in test trial of passive avoidance test ([5]; listed as aurantio-obtusin): attenuated the latency time; also recorded: attenuated that reduction significantly
Severity of neuronal damage in CA2 [6]: not in CA2 region
Severity of neuronal damage in cortex [6]: significantly reduced the severity of damage
Severity of neuronal damage in dCA1 [6]: significantly reduced the severity of damage
Severity of neuronal damage in mCA1 [6]: significantly reduced the severity of damage
Severity of neuronal damage in cortex ([6]; listed as Aurnatio-obtusin): significantly reduced the severity
Severity of neuronal damage in dCA1 ([6]; listed as Aurnatio-obtusin): significantly reduced the severity
Severity of neuronal damage in mCA1 ([6]; listed as Aurnatio-obtusin): significantly reduced the severity
Inhibition of ACE activity [7]: no activity
Dose causing hepatoxicity [8]: > 40 mg/kg
